Measurements as given in ChEMBL document CHEMBL1944514, “Fluorescence detection of single nucleotide polymorphisms using nucleic acid probe containing tricyclic base-linked acyclonucleoside” (Bioorg Med Chem Lett, 2012).
Activity calls are given as the source filed them. The calls are words filed in the database; no cut-off is given here.

Columns and labels:
Assay type in all cases: nucleic-acid assay
Nucleic Acid [1] = assay: Binding affinity to 3'-r(CUUCCAGUUACAUAGAGA)-5' RNA assessed as fluorescence quenching by spectrophotometry
Nucleic Acid [2] = assay: Binding affinity to 3'-r(CUUCCAGUUUCAUAGAGA)-5' RNA assessed as fluorescence quenching by spectrophotometry
Nucleic Acid [3] = assay: Binding affinity to 3'-r(CUUCCAGUUGCAUAGAGA)-5' RNA assessed as fluorescence quenching by spectrophotometry
Nucleic Acid [4] = assay: Binding affinity to 3'-r(CUUCCAGUUCCAUAGAGA)-5' RNA assessed as fluorescence quenching by spectrophotometry

| Structure (SMILES) | Activity (Nucleic Acid [1]) | Activity (Nucleic Acid [2]) | Activity (Nucleic Acid [3]) | Activity (Nucleic Acid [4]) |
| --- | --- | --- | --- | --- |
| Cc1cn([C@H]2C[C@H](OP(=O)(O)OC[C@H]3O[C@@H](n4ccc(N)nc4=O)C[C@@H]3OP(=O)(O)OC[C@H]3O[C@@H](n4cnc5c(N)ncnc54)C[C@@H]3OP(=O)(O)OC[C@H]3O[C@@H](n4cnc5c(N)ncnc54)C[C@@H]3OP(=O)(O)OC[C@H](Cn3cnc4cc5c(N)ncnc5nc43)OP(=O)(O)OC[C@H]3O[C@@H](n4cc(C)c(=O)[nH]c4=O)C[C@@H]3OP(=O)(O)OC[C@H]3O[C@@H](n4cnc5c(=O)[nH]c(N)nc54)C[C@@H]3OP(=O)(O)CC[C@H]3O[C@@H](n4cc(C)c(=O)[nH]c4=O)C[C@@H]3OP(=O)(O)OC[C@H]3O[C@@H](n4cnc5c(N)ncnc54)C[C@@H]3OP(=O)(O)OC[C@H]3O[C@@H](n4cc(C)c(=O)[nH]c4=O)C[C@@H]3OP(=O)(O)OC[C@H]3O[C@@H](n4ccc(N)nc4=O)C[C@@H]3OP(=O)(O)OC[C@H]3O[C@@H](n4cc(C)c(=O)[nH]c4=O)C[C@@H]3OP(=O)(O)OC[C@H]3O[C@@H](n4ccc(N)nc4=O)C[C@@H]3OP(=O)(O)OC[C@H]3O[C@@H](n4cc(C)c(=O)[nH]c4=O)C[C@@H]3O)[C@@H](COP(=O)(O)O[C@H]3C[C@H](n4cnc5c(=O)[nH]c(N)nc54)O[C@@H]3COP(=O)(O)O[C@H]3C[C@H](n4cnc5c(=O)[nH]c(N)nc54)O[C@@H]3COP(=O)(O)O[C@H]3C[C@H](n4cnc5c(N)ncnc54)O[C@@H]3COP(=O)(O)O[C@H]3C[C@H](n4cnc5c(N)ncnc54)O[C@@H]3COP(=O)(O)O[C@H]3C[C@H](n4cnc5c(=O)[nH]c(N)nc54)O[C@@H]3CO)O2)c(=O)nc1N | inactive | Active | inactive | Active |
| Cc1cn([C@H]2C[C@H](OP(=O)(O)OC[C@H]3O[C@@H](n4ccc(N)nc4=O)C[C@@H]3OP(=O)(O)OC[C@H]3O[C@@H](n4cnc5c(N)ncnc54)C[C@@H]3OP(=O)(O)OC[C@H]3O[C@@H](n4cnc5c(N)ncnc54)C[C@@H]3OP(=O)(O)OC[C@H](Cn3cnc4cc5c(N)ncnc5nc43)OP(=O)(O)OC[C@H]3O[C@@H](n4cnc5c(=O)[nH]c(N)nc54)C[C@@H]3OP(=O)(O)OC[C@H]3O[C@@H](n4cnc5c(=O)[nH]c(N)nc54)C[C@@H]3OP(=O)(O)CC[C@H]3O[C@@H](n4cc(C)c(=O)[nH]c4=O)C[C@@H]3OP(=O)(O)OC[C@H]3O[C@@H](n4cnc5c(N)ncnc54)C[C@@H]3OP(=O)(O)OC[C@H]3O[C@@H](n4cc(C)c(=O)[nH]c4=O)C[C@@H]3OP(=O)(O)OC[C@H]3O[C@@H](n4ccc(N)nc4=O)C[C@@H]3OP(=O)(O)OC[C@H]3O[C@@H](n4cc(C)c(=O)[nH]c4=O)C[C@@H]3OP(=O)(O)OC[C@H]3O[C@@H](n4ccc(N)nc4=O)C[C@@H]3OP(=O)(O)OC[C@H]3O[C@@H](n4cc(C)c(=O)[nH]c4=O)C[C@@H]3O)[C@@H](COP(=O)(O)O[C@H]3C[C@H](n4cnc5c(=O)[nH]c(N)nc54)O[C@@H]3COP(=O)(O)O[C@H]3C[C@H](n4cnc5c(=O)[nH]c(N)nc54)O[C@@H]3COP(=O)(O)O[C@H]3C[C@H](n4cnc5c(N)ncnc54)O[C@@H]3COP(=O)(O)O[C@H]3C[C@H](n4cnc5c(N)ncnc54)O[C@@H]3COP(=O)(O)O[C@H]3C[C@H](n4cnc5c(=O)[nH]c(N)nc54)O[C@@H]3CO)O2)c(=O)nc1N | Active | Active | Active | inactive |
| Cc1cn([C@H]2C[C@H](OP(=O)(O)OC[C@H]3O[C@@H](n4ccc(N)nc4=O)C[C@@H]3OP(=O)(O)OC[C@H]3O[C@@H](n4cnc5c(N)ncnc54)C[C@@H]3OP(=O)(O)OC[C@H]3O[C@@H](n4cnc5c(N)ncnc54)C[C@@H]3OP(=O)(O)OC[C@H](Cn3cnc4cc5c(N)ncnc5nc43)OP(=O)(O)OC[C@H]3O[C@@H](n4ccc(N)nc4=O)C[C@@H]3OP(=O)(O)OC[C@H]3O[C@@H](n4cnc5c(=O)[nH]c(N)nc54)C[C@@H]3OP(=O)(O)CC[C@H]3O[C@@H](n4cc(C)c(=O)[nH]c4=O)C[C@@H]3OP(=O)(O)OC[C@H]3O[C@@H](n4cnc5c(N)ncnc54)C[C@@H]3OP(=O)(O)OC[C@H]3O[C@@H](n4cc(C)c(=O)[nH]c4=O)C[C@@H]3OP(=O)(O)OC[C@H]3O[C@@H](n4ccc(N)nc4=O)C[C@@H]3OP(=O)(O)OC[C@H]3O[C@@H](n4cc(C)c(=O)[nH]c4=O)C[C@@H]3OP(=O)(O)OC[C@H]3O[C@@H](n4ccc(N)nc4=O)C[C@@H]3OP(=O)(O)OC[C@H]3O[C@@H](n4cc(C)c(=O)[nH]c4=O)C[C@@H]3O)[C@@H](COP(=O)(O)O[C@H]3C[C@H](n4cnc5c(=O)[nH]c(N)nc54)O[C@@H]3COP(=O)(O)O[C@H]3C[C@H](n4cnc5c(=O)[nH]c(N)nc54)O[C@@H]3COP(=O)(O)O[C@H]3C[C@H](n4cnc5c(N)ncnc54)O[C@@H]3COP(=O)(O)O[C@H]3C[C@H](n4cnc5c(N)ncnc54)O[C@@H]3COP(=O)(O)O[C@H]3C[C@H](n4cnc5c(=O)[nH]c(N)nc54)O[C@@H]3CO)O2)c(=O)nc1N | Active | Active | inactive | Active |
| Cc1cn([C@H]2C[C@H](OP(=O)(O)OC[C@H]3O[C@@H](n4ccc(N)nc4=O)C[C@@H]3OP(=O)(O)OC[C@H]3O[C@@H](n4cnc5c(N)ncnc54)C[C@@H]3OP(=O)(O)OC[C@H]3O[C@@H](n4cnc5c(N)ncnc54)C[C@@H]3OP(=O)(O)OC[C@H]3O[C@@H](n4cnc5c(N)ncnc54)C[C@@H]3OP(=O)(O)OC[C@H](Cn3cnc4cc5c(N)ncnc5nc43)OP(=O)(O)OC[C@H]3O[C@@H](n4cnc5c(=O)[nH]c(N)nc54)C[C@@H]3OP(=O)(O)CC[C@H]3O[C@@H](n4cc(C)c(=O)[nH]c4=O)C[C@@H]3OP(=O)(O)OC[C@H]3O[C@@H](n4cnc5c(N)ncnc54)C[C@@H]3OP(=O)(O)OC[C@H]3O[C@@H](n4cc(C)c(=O)[nH]c4=O)C[C@@H]3OP(=O)(O)OC[C@H]3O[C@@H](n4ccc(N)nc4=O)C[C@@H]3OP(=O)(O)OC[C@H]3O[C@@H](n4cc(C)c(=O)[nH]c4=O)C[C@@H]3OP(=O)(O)OC[C@H]3O[C@@H](n4ccc(N)nc4=O)C[C@@H]3OP(=O)(O)OC[C@H]3O[C@@H](n4cc(C)c(=O)[nH]c4=O)C[C@@H]3O)[C@@H](COP(=O)(O)O[C@H]3C[C@H](n4cnc5c(=O)[nH]c(N)nc54)O[C@@H]3COP(=O)(O)O[C@H]3C[C@H](n4cnc5c(=O)[nH]c(N)nc54)O[C@@H]3COP(=O)(O)O[C@H]3C[C@H](n4cnc5c(N)ncnc54)O[C@@H]3COP(=O)(O)O[C@H]3C[C@H](n4cnc5c(N)ncnc54)O[C@@H]3COP(=O)(O)O[C@H]3C[C@H](n4cnc5c(=O)[nH]c(N)nc54)O[C@@H]3CO)O2)c(=O)nc1N | Active | inactive | Active | Active |
